Data: patent publication US7851489B2, “Pyridinone compounds” (Bristol-Myers Squibb Company, priority 2006, dated 2010)
Read-outs that look alike come from different tables or passages of the source.

Key:
[1] = Pharmacokinetic parameters obtained in mice, 8 h oral exposure study; format: in vivo; conditions: mouse, serum; single oral dose 50 mg/kg, solution in 70% PEG400/30% water, fasted male Balb/C mice; read-out: Pharmacokinetic Parameters AUC0-8 h
Protocol: Pharmacokinetic Parameters Obtained in Mice. In a 8 h oral exposure studies, a single-dose of 50 mg/kg of the compounds were delivered as a solution in 70% PEG400/30% water by oral gavage to fasted adult male Balb/C mice (n=2 or 3 per compound). Three serum samples were collected from each mouse at 0.5, 1, 4, 8 h time points following oral dosing. The first two samples were obtained by retro-orbital bleed (˜100 μL/20-25 g mouse) and the third sample by cardiac puncture. The blood samples were allowed to clot on ice, centrifuged and then serum harvested. Plasma samples were stored at −20° C. prior to analysis. The plasma samples were analyzed for parent compound via HPLC coupled tandem mass spectrometry (LC/MS/MS).

CYP3A4 = molecular target: T1, CYP3A4 (Homo sapiens, UniProt P08684); assay: Cytochrome P450 assay (recombinant human CYP isoforms, fluorescence); format: in vitro ADME
T1 construct: host or cells: baculovirus-infected insect cells
Protocol: The ability of compound to inhibit the major human cytochrome P450s (CYPs) responsible for drug metabolism was evaluated in vitro using recombinant human CYP isoforms. […] CYP3A4 inhibition was evaluated with two substrates: 7-benzyloxy-4-trifluoromethylcoumarin (BFC) and resorufin benzyl ether (BzRes). A single concentration of each model substrate (at approximately the apparent Km, with the exception of BFC, which was tested below the apparent Km) and multiple concentrations of the test compounds, separated by approximately ½ log units, were tested in duplicate. Metabolism of the model substrates was assayed by the production of 7-hydroxy-3-cyanocoumarin, 3-[2-(N,N-diethylamino)ethyl]-7-hydroxy-4-methylcoumarin, 7-hydroxy-4-trifluoromethylcoumarin or resorufin, and measured via fluorescence detection. Assays were conducted in 96-well microtiter plates in the presence of an NADPH generating system. Positive control samples were included in these studies. […] The IC50 values were calculated utilizing XLfit curve-fitting software.

[2] = tested on: U87 human glioblastoma model; assay: In vivo efficacy against U87 glioblastoma xenografts
Description: In Vivo Efficacy Determination […] FIG. 2. Antitumor activity against U87 glioblastoma xenografts

[3] = tested on: GTL-16 human gastric carcinoma model; assay: In vivo efficacy against GTL-16 gastric carcinoma xenografts
Description: In Vivo Efficacy Determination […] FIG. 1. Antitumor activity against GTL-16 gastric carcinoma xenografts

GST-Met kinase = molecular target: T2, GST-Met kinase (Homo sapiens, UniProt P08581); assay: Met kinase assay; format: biochemical; conditions: 1 μM ATP, polyGlu:Tyr (4:1) substrate, 60 min at 30° C.
T2 construct: host or cells: baculovirus expression system
T2 sequence (P08581 25-1390): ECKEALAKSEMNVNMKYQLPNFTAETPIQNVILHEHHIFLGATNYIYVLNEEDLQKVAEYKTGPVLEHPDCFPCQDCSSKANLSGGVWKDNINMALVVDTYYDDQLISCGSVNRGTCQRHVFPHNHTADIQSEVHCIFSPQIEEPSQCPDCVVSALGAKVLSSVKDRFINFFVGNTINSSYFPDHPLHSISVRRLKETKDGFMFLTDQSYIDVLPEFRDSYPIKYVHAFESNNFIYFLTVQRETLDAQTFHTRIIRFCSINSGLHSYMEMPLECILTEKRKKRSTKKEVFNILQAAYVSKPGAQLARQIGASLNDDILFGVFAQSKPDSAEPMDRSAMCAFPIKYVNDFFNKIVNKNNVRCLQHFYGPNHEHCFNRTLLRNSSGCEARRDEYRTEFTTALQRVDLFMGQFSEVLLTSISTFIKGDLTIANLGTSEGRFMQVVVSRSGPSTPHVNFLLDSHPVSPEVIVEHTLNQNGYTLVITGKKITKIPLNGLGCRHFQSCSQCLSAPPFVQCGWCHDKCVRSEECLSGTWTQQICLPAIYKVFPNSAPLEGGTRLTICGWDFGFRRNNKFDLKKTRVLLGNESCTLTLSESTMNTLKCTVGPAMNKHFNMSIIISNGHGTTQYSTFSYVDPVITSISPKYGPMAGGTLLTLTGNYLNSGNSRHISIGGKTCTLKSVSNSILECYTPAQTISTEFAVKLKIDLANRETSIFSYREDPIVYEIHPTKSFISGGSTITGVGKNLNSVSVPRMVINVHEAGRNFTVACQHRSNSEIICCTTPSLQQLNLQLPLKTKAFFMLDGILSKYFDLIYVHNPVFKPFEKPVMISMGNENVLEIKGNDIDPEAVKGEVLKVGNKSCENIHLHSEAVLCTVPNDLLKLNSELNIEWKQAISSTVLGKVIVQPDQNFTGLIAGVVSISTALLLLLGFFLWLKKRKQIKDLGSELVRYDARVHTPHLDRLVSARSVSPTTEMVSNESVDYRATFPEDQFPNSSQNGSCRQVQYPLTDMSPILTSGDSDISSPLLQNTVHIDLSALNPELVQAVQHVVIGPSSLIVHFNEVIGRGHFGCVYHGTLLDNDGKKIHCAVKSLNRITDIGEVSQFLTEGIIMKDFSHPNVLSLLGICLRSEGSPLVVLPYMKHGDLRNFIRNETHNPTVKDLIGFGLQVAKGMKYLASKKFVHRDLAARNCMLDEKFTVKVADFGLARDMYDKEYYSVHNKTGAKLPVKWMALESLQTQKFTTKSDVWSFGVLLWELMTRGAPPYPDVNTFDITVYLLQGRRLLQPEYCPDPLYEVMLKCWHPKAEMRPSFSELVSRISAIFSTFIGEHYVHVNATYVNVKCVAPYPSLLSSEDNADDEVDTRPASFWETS
Protocol: Incubation mixtures employed for the Met kinase assay contain a baculovirus expressed GST-Met kinase, the synthetic substrate polyGlu:Tyr, (4:1), ATP, ATP-γ-^33 P and buffer containing Mn^++, DTT, BSA, and Tris. Reactions were incubated for 60 minutes at 30° C. and stopped by the addition of cold trichloroacetic acid (TCA) to a final concentration 8%. TCA precipitates were collected onto GF/C unifilter plates (Packard Instrument Co., Meriden, Conn.) using a Filtermate universal harvester (Packard Instrument Co., Meriden, Conn.) and the filters are quantitated using a TopCount 96/384-well liquid scintillation counter (Packard Instrument Co., Meriden, Conn.). Dose response curves were generated to determine the concentration required to inhibit 50% of kinase activity (IC—50). Compounds were dissolved at 10 mM in dimethyl sulfoxide (DMSO) and evaluated at ten concentrations, each in duplicate. The final concentration of DMSO in the assay is 1.7%. IC—50 values were derived by non-linear regression.

T1 sequence (P08684 whole entry, canonical isoform): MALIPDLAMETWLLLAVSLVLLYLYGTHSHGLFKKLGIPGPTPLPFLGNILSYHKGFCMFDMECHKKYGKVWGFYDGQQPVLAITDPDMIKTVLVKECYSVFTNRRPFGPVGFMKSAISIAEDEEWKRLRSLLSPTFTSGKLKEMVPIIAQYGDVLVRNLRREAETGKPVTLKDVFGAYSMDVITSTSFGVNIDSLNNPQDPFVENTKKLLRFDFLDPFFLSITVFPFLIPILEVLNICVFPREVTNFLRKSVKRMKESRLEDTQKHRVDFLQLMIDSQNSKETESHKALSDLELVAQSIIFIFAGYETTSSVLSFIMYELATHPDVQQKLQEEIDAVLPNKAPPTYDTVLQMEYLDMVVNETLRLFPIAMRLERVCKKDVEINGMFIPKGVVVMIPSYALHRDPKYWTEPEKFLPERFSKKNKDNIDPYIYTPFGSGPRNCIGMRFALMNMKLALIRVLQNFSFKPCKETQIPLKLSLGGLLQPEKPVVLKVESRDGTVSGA

AUC(0-t) [1] | IC50 (CYP3A4; substrate 7-benzyloxy-4-trifluoromethylcoumarin (BFC), read-out: CYP 3A4-BFC IC50) | IC50 (CYP3A4; substrate resorufin benzyl ether (BzRes), read-out: CYP 3A4-BZR IC50) | IC50 (GST-Met kinase) | SMILES | antitumor activity ([2]; 25 mg/kg) | antitumor activity ([2]; 50 mg/kg) | overt toxicity ([3]; GTL-16 study, 6.25 mg/kg to 50 mg/kg dosed once a day for 14 days) | maximum efficacious dose level ([3]; GTL-16 tumor xenograft) | minimum efficacious dose (MED) ([3]; GTL-16 tumor xenograft) | antitumor activity ([3]; GTL-16 xenografts, 25 mg/kg) | antitumor activity ([3]; GTL-16 xenografts, 50 mg/kg) | antitumor activity at higher dose ([3]; GTL-16 xenografts, 100 mg/kg, previously described study) | tumor growth inhibition (TGI) ([3]; GTL-16 xenografts, lowest dose level tested, 6.25 mg/kg) | tumor growth inhibition (TGI) ([3]; GTL-16 xenografts, multiple dose levels ranging from 6.25 mg/kg to 50 mg/kg, once a day for 14 days, for at least one tumor doubling time)
33 µM·h | 510 nM | 6400 nM |  | Cl.Nc1cc(Oc2ccc(NC(=O)c3cccn(-c4ccc(F)cc4)c3=O)cc2F)ccn1 [Compound 2, N-(4-(2-Aminopyridin-4-yloxy)-3-fluorophenyl)-1-(4-fluorophenyl)-2-oxo-1,2-dihydropyridine-3-carboxamide, hydrochloride salt] |  |  |  |  |  |  |  |  |  | 
236 µM·h |  |  | 3.5 nM | CCOc1ccn(-c2ccc(F)cc2)c(=O)c1C(=O)Nc1ccc(Oc2ccnc(N)c2Cl)c(F)c1 [Compound 1, N-(4-(2-Amino-3-chloropyridin-4-yloxy)-3-fluorophenyl)-4-ethoxy-1-(4-fluorophenyl)-2-oxo-1,2-dihydropyridine-3-carboxamide] | complete tumor stasis | complete tumor stasis | No overt toxicity was observed | 25 mg/kg | 6.25 mg/kg | complete tumor stasis | complete tumor stasis | no increase in activity was observed | greater than 50% | greater than 50%
